In assay [1] the target is T1, Bcl-xL (GST-Bcl-xL) (Homo sapiens, UniProt Q07817). As to the kind of experiment: TR-FRET binding assay, competition with F-Bak for the Bcl-xL binding site. As to conditions: values listed in the order of Table 1, read-out: TR-FRET assay results (Ki), Bcl-xL. On the technique in general: In TR-FRET formats the signal depends on donor and acceptor labels being close together.

The target in assay [2] is T1, Bcl-xL (GST-Bcl-xL). As to the kind of experiment: AlphaScreen Bcl-xL binding assay, competition with biotinylated Bim peptide. As to conditions: values listed in the order of Table 1; read-out: Alphascreen results (IC50) against the Bcl-xL protein. Set-up: made in house. From the text: The measurement of competition of compounds of the invention with Bim26-mer for a Bcl-2 family protein binding site using an Alpha Screen Bcl-xL binding assay:
The BH3 proteins AlphaScreen™ assay was used to identify active small molecules Bcl-2 family protein screen, e.g., Bcl-xL, hmMcl-1 screen.
The beads come in close proximity when the protein and the peptides interact. Donor beads contain a photosensitiser that converts oxygen to an excited form of O2 at an excitation of 680 nm. Energy is transformed from the singlet oxygen and reacts with chemiluminescers on the acceptor bead, resulting in light emission at 520-620 nm. […] With this information, the IC50 of each compound was calculated
GST-Bcl-xL, GST-hmMcl-1 and biotinylated GST proteins were prepared in-house and were stored as stock solutions at −80° C. The biotinylated-Bak, and biotinylated-Bim peptides were purchased from Auspep and were stored as 500 μM stock solutions in 100% DMSO at −80° C. […] DMSO was purchased from AnalaR.
Compounds of the invention were prepared as 10 mM stocks with 100% DMSO on the day prior to performing the assay. […] To achieve a final compound concentration of 1 μM, in a separate matrical plate, 28 μL of 100% DMSO and 2 μL of 10 mM compound was added to a well, mixed well, 2 μL of this solution was taken and added to 38 μL of 100% DMSO. 20 μL of this solution was added to the test matrical plate. Several control compounds were included in the test plates. For the control wells 15 μL 100% DMSO only was added to the appropriate wells of each plate. The compound plates were then serially diluted 2 fold using the MiniTrak. Once titrations were complete, the compound plate was immediately covered with a foil seal to prevent evaporation.
The assay and bead buffers were prepared fresh. Each titrated compound plate was assayed in duplicate. The following volumes were sufficient to run 12 Proxiplates (4 assay plates run in duplicate in each of Bclxl, hmMcl and counter assays)
Protein and Peptide Preparation; and Assay Performance • 1. The assay and bead buffers were used to prepare the acceptor and donor solutions. ALPHASCREEN™ beads are light sensitive and therefore prepared in a darkened room. 2.5 μL of beads were added per 1 mL of buffer. • 2. The volume of protein or peptide to add was calculated using the following formula:
V2=Volume of stock protein/Peptide to add to Acceptor/Donor solution • 3. The assay components were prepared as separate Acceptor and Donor Solutions. The Acceptor Solution contained Acceptor beads and target protein, while the Donor Solution contained Donor beads and biotinylated peptide.
• 4. After the solutions were prepared, they were left to incubate for 30 minutes at room temperature to allow the beads to bind to the protein and the peptide. • 5. 50 μL of Bcl-xL solution, 50 μL of hmMcl-1 solution and 50 μL of biotinylated-GST were added into separate deep wells on an assay plate. A control 50 μL Assay/Bead buffer was added separate well plates (no protein). • 6. 50 μL of Bim solution and 50 μL of Bak solution were added into separate deep well plates. • 7. Transfer 0.3 μL it of sample from the compound plate into each assay plate. • 8. Incubated for 30 mins at RT, then add 5 μL of the Donor solution. After addition of the Donor solution, tapped plates gently and sealed individually with adhesive film. • 9.
The percent inhibition was calculated using the following equation:
[formula] • x=RFU obtained after compound treatment • μ^−=RFU obtained for the negative controls (no protein controls) • μ^+=RFU obtained for the positive controls (DMSO vehicle controls)
Background: Alpha assays give light when donor and acceptor beads are brought close together.

T1 sequence (Q07817 whole entry, species assumed): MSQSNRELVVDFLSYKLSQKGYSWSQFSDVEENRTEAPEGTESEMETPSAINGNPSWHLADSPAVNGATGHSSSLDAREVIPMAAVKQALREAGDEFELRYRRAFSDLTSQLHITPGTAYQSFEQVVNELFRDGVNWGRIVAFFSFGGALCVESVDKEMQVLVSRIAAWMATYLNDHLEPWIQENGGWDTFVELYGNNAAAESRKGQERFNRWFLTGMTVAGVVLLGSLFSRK

Take `NCc1ccc(OCCCc2sc(N3CCc4cccc(C(=O)Nc5nc6ccccc6s5)c4C3)nc2C(=O)O)cc1` [Compound 141, 5-(3-(4-(aminomethyl)phenoxy)propyl)-2-(8-(benzo[d]thiazol-2-ylcarbamoyl)-3,4-dihydroisoquinolin-2(1H)-yl)thiazole-4-carboxylic acid]: the Ki (as a rule, a measure of affinity in units of concentration, obtained from inhibition or displacement) on Bcl-xL (GST-Bcl-xL) [1] amounted to 0.487 nM. The IC50 (as a rule, the concentration that gives 50% inhibition) on Bcl-xL (GST-Bcl-xL) [2] was found to be 3800 nM.
As to `O=C(O)c1csc(N2CCc3cccc(C(=O)Nc4nc5ccccc5s4)c3C2)n1` [Example 1, 2-(8-(Benzo[d]thiazol-2-ylcarbamoyl)-3,4-dihydroisoquinolin-2(1H)-yl)thiazole-4-carboxylic acid], the Ki at Bcl-xL (GST-Bcl-xL) [1] stood at 77 nM. Moreover, the IC50 at Bcl-xL (GST-Bcl-xL) [2] was determined as 100 nM.
The matching figures for `O=C(Nc1nc2ccccc2s1)c1cccc2c1CN(c1nc(C(=O)O)c(CCCSc3ccncc3)s1)CC2` [Example 3, 2-(8-(benzo[d]thiazol-2-ylcarbamoyl)-3,4-dihydroisoquinolin-2(1H)-yl)-5-(3-(pyridin-4-ylthio)propyl)thiazole-4-carboxylic acid]: 0.2 nM and 1 nM.
As for `CC(C)(C)OC(=O)Nc1ccc(OCCCc2sc(N3CCc4cccc(C(=O)Nc5nc6ccccc6s5)c4C3)nc2C(=O)O)cc1` [Example 4, 2-(8-(benzo[d]thiazol-2-ylcarbamoyl)-3,4-dihydroisoquinolin-2(1H)-yl)-5-(3-(4-(tert-butoxycarbonylamino)phenoxy)propyl)thiazole-4-carboxylic acid], on Bcl-xL (GST-Bcl-xL) [1], the Ki amounted to 0.3 nM. At Bcl-xL (GST-Bcl-xL) [2], the IC50 stood at 0.8 nM.
The matching figures for `CC(C)(C)OC(=O)Nc1cccc(OCCCc2sc(N3CCc4cccc(C(=O)Nc5nc6ccccc6s5)c4C3)nc2C(=O)O)c1` [Example 5, 2-(8-(benzo[d]thiazol-2-ylcarbamoyl)-3,4-dihydroisoquinolin-2(1H)-yl)-5-(3-(3-(tert-butoxycarbonylamino)phenoxy)propyl)thiazole-4-carboxylic acid]: 1 nM and 2 nM.
For the compound `Nc1ccc(OCCCc2sc(N3CCc4cccc(C(=O)Nc5nc6ccccc6s5)c4C3)nc2C(=O)O)cc1` [Example 6, 5-(3-(4-aminophenoxy)propyl)-2-(8-(benzo[d]thiazol-2-ylcarbamoyl)-3,4-dihydroisoquinolin-2(1H)-yl)thiazole-4-carboxylic acid], the Ki on Bcl-xL (GST-Bcl-xL) [1] was 0.2 nM. Also, at Bcl-xL (GST-Bcl-xL) [2], the IC50 is 2 nM.
The matching figures for `O=C(Nc1nc2ccccc2s1)c1cccc2c1CN(c1nc(C(=O)O)c(CCCn3cccn3)s1)CC2` [Example 7, 5-(3-(1H-pyrazol-1-yl)propyl)-2-(8-(benzo[d]thiazol-2-ylcarbamoyl)-3,4-dihydroisoquinolin-2(1H)-yl)thiazole-4-carboxylic acid]: 7 nM and 25 nM.
The matching figures for `Nc1cccc(OCCCc2sc(N3CCc4cccc(C(=O)Nc5nc6ccccc6s5)c4C3)nc2C(=O)O)c1` [Example 9, 5-(3-(3-aminophenoxy)propyl)-2-(8-(benzo[d]thiazol-2-ylcarbamoyl)-3,4-dihydroisoquinolin-2(1H)-yl)thiazole-4-carboxylic acid]: 0.07 nM and 0.8 nM.
On the same counts, the results for `O=C(Nc1nc2ccccc2s1)c1cccc2c1CN(c1nc(C(=O)O)c(CCCOc3ccncc3)s1)CC2` [Example 10, 2-(8-(benzo[d]thiazol-2-ylcarbamoyl)-3,4-dihydroisoquinolin-2(1H)-yl)-5-(3-(pyridin-4-yloxy)propyl)thiazole-4-carboxylic acid] are 0.1 nM and 1 nM.
In the case of `CN(C)c1cccc(OCCCc2sc(N3CCc4cccc(C(=O)Nc5nc6ccccc6s5)c4C3)nc2C(=O)O)c1` [Example 11, 2-(8-(benzo[d]thiazol-2-ylcarbamoyl)-3,4-dihydroisoquinolin-2(1H)-yl)-5-(3-(3-(dimethylamino)phenoxy)propyl)thiazole-4-carboxylic acid], the Ki at Bcl-xL (GST-Bcl-xL) [1] is 0.1 nM. The IC50 on Bcl-xL (GST-Bcl-xL) [2] was 2 nM.
